Among the data in patent publication US4552882A, “7-(1-Pyrrolyl) derivatives of 1-ethyl-1,4-dihydro-4-oxoquinoline-3-carboxylic acids and 1-ethyl-1,4-dihydro-4-oxo-1,8-naphthyridine-3-carboxylic acids and their use as antimicrobial agents” (Provesan, SA, priority 1983, dated 1985) are LD50 values, retold here.

Structures are written as SMILES.

A short description of the series: in vivo. The conditions noted are these: mouse, ip. On the procedure:
To determine this toxicity, C.F.L.P. strain albino mice of both sexes, weighing between 19 and 25 grams, have been used as experimental animals. After an 18 hour fast period with water "ad libitum" the derivatives which are the subjects of the present invention are administered intraperitoneally in 5% suspension in gum arabic. The volume of suspension administered has in all cases been 0.4 ml/20 grams (20 ml/kg), changing the concentration of the suspension according to the dose administered.
One hour after the administration of the derivatives, the animals are supplied with Panlab standard rat-mouse feed. The period of observation of mortality has been 7 days.

As to `CCn1cc(C(=O)O)c(=O)c2ccc(C)nc21` [Nalidixic acid, reference compound], the LD50 at 168 h amounted to 600 mg/kg.

The LD50 is the dose expected to kill half of the subjects tested. Read a high LD50 as a less toxic substance.
